≈ marks a conversion by molar mass, not a printed value. Where “and” joins values, the source holds several entries; their conditions need not be identical. Identical values can stand only once. Like-named read-outs stand apart in the source and are kept apart here.
Legend:
[1] = system: tumor necrosis factor (TNF-α) production by RAW 264.7 stimulated by LPS; test: Anti-inflammatory activity: TNF-α production by LPS-stimulated macrophages; assay type: cell-based, Murine; settings: Mus musculus, RAW264.7; LPS-stimulated RAW 264.7; average of four repetitions ± SEM; read-out: TNFα production IC50
Protocol: The anti-inflammatory activity of flavonoids was evaluated as their ability to decrease the production of signaling molecules that mediate inflammation, such as nitric oxide (NO), tumor necrosis factor (TNF-α), and interleukin 6 (IL-6), in LPS-stimulated macrophages.
The anti-inflammatory activity of the tested flavonoids was determined as the ability to reduce the production of nitric oxide (NO), tumor necrosis factor (TNF-α), and interleukin 6 (IL-6) by RAW 264.7 stimulated by LPS, as previously described.[39],[40] Briefly, 1 × 10^6 cells/mL was seeded into the 96-well plate (100 μL/well). After 48 h, LPS (100 ng/mL) and the samples (3–100 μM) were added to the MEM medium. After 24 h, the medium was mixed with Griess reagent (0.04 g/mL) at a 1:1 ratio. The absorbance was measured after 15 min at 540 nm. Cell viability was determined using the resazurin assay.
To determine TNF-α levels, cells were precultivated with the tested compounds for 24 h. After 2 h of incubation with LPS, the medium was diluted 1:10 with ELISA diluent. To determine the level of IL-6, cells were cultivated for 6 h with LPS and the tested compounds. Cytokine production was determined using an uncoated ELISA performed according to the manufacturer’s instructions.

[2] = system: Staphylococcus aureus MRSA 9; test: Modulation of antibiotic-resistant phenotype (flavonoid plus breakpoint concentration of antibiotic); assay type: cell-based; settings: MIC determined as IC70, three repetitions ± SEM; for minimum inhibitory concentration (MIC) in the presence of erythromycin: erythromycin at breakpoint concentration 1 mg/L; for minimum inhibitory concentration (MIC) in the presence of gentamicin: gentamicin at breakpoint concentration 1 mg/L
Protocol: To evaluate the ability to modulate bacterial resistance, the tested flavonoids themselves cannot exert antimicrobial activity; therefore, the nontoxic concentration was used, as indicated in Table S5. Clinically relevant antibiotics were selected at breakpoint concentrations for susceptibility testing according to the European Committee on Antimicrobial Susceptibility Testing (EUCAST, version 11.0). […] Flavonoids and their derivatives (from 1 μM to the highest nontoxic concentration) were used in combination with the breakpoint concentration of the antibiotics. After coincubation, the minimum inhibitory concentration (MIC) of flavonoids inhibiting the visible growth of bacteria was determined (Table 2).
(§1) Sensitization of multidrug-resistant clinical bacterial strains was performed according to ref[15]. Antibiotic cutoff concentration was chosen according to the European Committee on Antimicrobial Susceptibility Testing (EUCAST, Clinical breakpoints–bacteria, ver. 11.0). The 200 μM concentration of the derivatives was chosen as the highest test concentration. The absorbance detected at 600 nm was then used to estimate the number of viable cells after 24 h of incubation at 37 °C and 120 rpm.
(§2) Experiments were performed with the respective number of replicates indicated in each figure/table. MIC was determined as IC70. Both IC70 and IC50 values were calculated using the following nonlinear regression in the software GraphPad Prism: […]

[3] = system: immortalized human keratinocytes (HaCaT); test: Cytotoxicity (resazurin assay), keratinocytes; assay type: cell-based; settings: Homo sapiens, HaCaT, 72 h, read-out: HaCaT IC50 (concentration that halved the viability)
Protocol: (§3) The cytotoxicity of the prepared derivatives was evaluated by their ability to decrease the viability of immortalized human keratinocytes (HaCaT) and human dermal fibroblasts (HDF).
(§4) 100 μL of cell suspension containing 10^5 cells/mL was pipetted into a 96-well plate. After 24 h incubation, the tested compounds were added in the concentration range 12.5–200 μM. After 72 h incubation, the cell viability was tested by standard resazurin assay.[41] Briefly, the cells were washed with PBS and incubated with 100 μL of resazurin solution (0.025 mg/mL) for 2 h. The fluorescence was measured at a wavelength of 560 nm excitation/590 nm emission.

[4] = system: Methicilin-Resistant S. aureus 331 Strain; test: Mode of antimicrobial action with erythromycin, ermC-positive strain; assay type: cell-based; settings: for MIC, erythromycin [1 mg/L] yes / MIC, erythromycin [1 mg/L] no: MRSA 331 (ermC); for MIC, erythromycin [1 mg/L] yes: with erythromycin 1 mg/L; for MIC, erythromycin [1 mg/L] no: without erythromycin; for FIC (Fractional Inhibitory Concentration Index): MRSA 331, with erythromycin
Text: Erythromycin is a macrolide antibiotic that inhibits proteosynthesis by binding to the 50S subunit of the ribosome. In Staphylococcus species, resistance to erythromycin is associated with the presence of methyltransferases (encoded by erm genes) that alter the ribosomal target site. Another typical mechanism of resistance to erythromycin is the presence of an ATP-dependent efflux pump encoded by the msr(A) gene or a major facilitator superfamily (MFS) pump encoded by the lmrS gene. Both efflux pumps reduce the concentration of erythromycin in the cell below the therapeutic dose by transporting it across the membrane to the extracellular space. Another erythromycin resistance gene is the mph(C) gene, the product of which is a phosphotransferase that alters the structure of macrolide antibiotics. To elucidate the mechanism of erythromycin resistance modulation in S. aureus, further tests were performed with the strains MRSA 331 and MRSA 3596, which inactivate erythromycin via a single mechanism (ermC and ermA, respectively). […] Therefore, if the activity was not strain-specific, it would be necessary to consider the effect of the derivatives on this pump (Table 3).
as §1, §2

[5] = system: human dermal fibroblasts (HDF); test: Cytotoxicity (resazurin assay), fibroblasts; assay type: cell-based; settings: Homo sapiens, Fibroblast, 72 h, read-out: HDF IC50 (concentration that halved the viability)
Protocol: as §3, §4

[6] = system: MRSA 1584; test: Mode of antimicrobial action with gentamicin, aac(6')/aph(2')-positive strain; assay type: cell-based, Staphylococcus aureus; settings: for effect (mode of action with gentamicin) / FIC (Fractional Inhibitory Concentration Index) / MIC: MRSA 1584; for MIC, Gentamicin [1 mg/L] yes: MRSA 1584 (aac(6')/aph(2')), with gentamicin 1 mg/L; for FIC (Fractional Inhibitory Concentration Index): with gentamicin; for MIC: Staphylococcus aureus, 24 h, read-out: MIC, Gentamicin [1 mg/L] no, without gentamicin
Text: Among the mechanisms of resistance to gentamicin previously described in S. aureus, the presence of enzymes that alter the structure of aminoglycosides is crucial. These enzymes can transfer nucleotides, phosphates, or acetyls to various −OH or −NH2 groups of gentamicin, preventing its subsequent interaction with the cellular target, i.e., the 30S ribosomal subunit. The bifunctional aminoglycoside-modifying enzyme with acetylation and phosphotransferase activities encoded by the gene aac(6’)/aph(2’), 4′,4″ adenyltransferase encoded by the aadD gene, and aminoglycoside O-phosphotransferase encoded by the gene aph(3′) are the most important.[37] […] For this reason, further testing continued using strains MRSA 3596 and MRSA 1584, which inactivate gentamicin only by a single mechanism (aadD and aac(6’)-aph(2’’), respectively).
as §1, §2

[7] = 72 h incubation, resazurin, average of three repetitions ± SEM

Structure (SMILES)	IC50 [1] [µM]	minimum inhibitory concentration (MIC) in the presence of erythromycin [2]	minimum inhibitory concentration (MIC) in the presence of gentamicin [2]	IC50 [3, 7] [µM]	MIC, erythromycin [1 mg/L] yes [4] [µM]	MIC, erythromycin [1 mg/L] no [4] [µM]	FIC (Fractional Inhibitory Concentration Index) [4]	IC50 [5, 7] [µM]	effect (mode of action with gentamicin) [6]	MIC, Gentamicin [1 mg/L] yes [6] [µM]	FIC (Fractional Inhibitory Concentration Index) [6]	MIC [6] [µM]	IC50 [3] [µM]	IC50 [5] [µM]
COc1ccc(Nc2c(O)cc(O)c3c(=O)cc(-c4ccc(O)c(O)c4)oc23)cc1 [compound 12, 2-(3,4-Dihydroxyphenyl)-8-(4-methoxyanilino)-5,7-dihydroxy-4H–1-benzopyran-4-one]	> 50	76.3 µM and 76.3 ± 1.9 µM	44.0 ± 1.6 µM	59.3 ± 6.3	54.8 ± 0.4 (≈ 22.3 µg/mL)	54.4 ± 2.1 (≈ 22.2 µg/mL)	1.01 ± 0.05	35.5 ± 1.5	additive (> 0.5-1 indicates additive effects)	47.1 ± 0.8 (≈ 19.2 µg/mL)	0.65 ± 0.03	72.9 ± 2.4 (≈ 29.7 µg/mL)	–	–
O=c1cc(-c2ccc(O)c(O)c2)oc2c(Nc3ccc(F)cc3)c(O)cc(O)c12 [compound 11, 2-(3,4-Dihydroxyphenyl)-8-(4-fluoroanilino)-5,7-dihydroxy-4H–1-benzopyran-4-one]	28.4 ± 0.2	>25 ^note 4 μM	7.9 µM and 7.9 ± 0.5 µM	–	57.4 ± 0.2 (≈ 22.7 µg/mL)	57.6 ± 0.2 (≈ 22.8 µg/mL)	1.00 ± 0.01	–	additive (> 0.5-1 indicates additive effects)	15.7 ± 0.9 (≈ 6.21 µg/mL)	0.65 ± 0.06	24.1 ± 0.7 (≈ 9.53 µg/mL)	76.9 ± 7.7	51.9 ± 3.7
O=c1cc(-c2ccc(O)c(O)c2)oc2cc(O)cc(O)c12 [compound 10, luteolin, reference compound]	25.9 ± 0.3	147.3 ± 7.7 µM	84.7 ± 1.8 µM	–	31.6 ± 2.5 (≈ 9.05 µg/mL)	28.1 ± 0.3 (≈ 8.04 µg/mL)	1.12 ± 0.10	–	additive (> 0.5-1 indicates additive effects)	7.6 ± 1.0 (≈ 2.18 µg/mL)	0.50 ± 0.11	15.2 ± 1.4 (≈ 4.35 µg/mL)	34.7 ± 1	42.9 ± 3.4

Source: PMC11325505, “Nitrogen-Containing Flavonoids—Preparation and Biological Activity” (ACS Omega, 2024)
